Data as given in patent US20110269790A1, “NOVEL THIENOPYRIDINES AS PHARMACOLOGICALLY ACTIVE AGENTS” (priority 2009, published 2011).

Columns and labels:
nitric oxide = experiment: Nitric oxide inhibition assay, sodium nitroprusside method; conditions: Griess reagent, vs control
Wistar rats [1] = experiment: Cotton pellet granuloma (sub acute model); type: in vivo, rat; conditions: BN compounds 100 mg/kg, Indomethacin 5 mg/kg, daily for 7 days
Protocol: Wistar rats weighing between 180-220 gms were anaesthetized with ether. The skin at their back was shaved and disinfected with 70% alcohol according to D'Arcy et al., 1960). An incision was made in the lumbar region. Using a blunt forceps subcutaneous tunnel was formed and a sterilized cotton pellet was placed on both sides in scapular region. Standard 20 mg cotton pellets was weighed and sterilized for the study. Rats were grouped into 5 groups of 6 animals each. […] On 8th day rats in all groups were sacrificed with anesthetic ether. Pellets were removed and kept overnight for incubation at 37° C. Then pellets were dried at 60° C. until they reach constant weight. The wet weight of pellets was also recorded after sacrificing. The average weights of pellets of control group and other treated groups were calculated. The percent change of granuloma weight was calculated for all the test groups comparing with control group.

TNF-α = experiment: In vitro TNF-α estimation in LPS treated RAW 264.7 macrophages (ELISA); type: cell-based, mouse
Protocol: Cell Culture and Treatment: The RAW 264.7 (mouse macrophages, national center for cellular sciences) cells were grown in plastic T-25 culture flask in Dulbeccos modified eagles medium (DMEM) without phenol red supplemented with 10% heat activated serum (heating at 57° C. for 30 minutes, 100 μg per ml penicillin, 200 μg per ml streptomycin, 2 mmol L-glutamine, 1% antibiotic/Anti mycotic solution (GIBCO/SRL) under 5% co2 with 85% relative humidity at 37° C. After 2-3 days cells were removed from the culture flask by tripsinizing the cells with Trypsin EDTA solution. Cell count and viability was performed using a standard Trypan blue dye exclusion method. The cell concentration was adjusted to 1×10^5 cells per ml in each well with the same media in the 12 well plates. After 24 hrs incubation the media was removed from each well replaced with a fresh one containing different concentrations (50 μg, 25 μg, 12.5 μg) of the synthetic compounds BN-4, BN-14 and BN-16 along with 10 μg/ml LPS, where as normal control (PBS) and positive controls (Dexa, Roli) LPS (10 μg/ml), were added. 200 μl of media from each well was collected at 6 hrs for the estimation of TNF-α and after 24 hrs for Nitric Oxide respectively. The adherent cells, which remained after removing the media was subjected to […] for determining the cytotoxicity of compounds at selected concentrations
Measurement of TNF-α: TNF-α was assayed by ELISA kit supplied by R&D systems. A volume of 100 μl of 0.8 μg per ml, goat anti mouse TNF-a in PBS was coated and incubated overnight at room temperature. Plates were washed 3 times with PBS/0.05% Tween 20 and blocked by the addition of 1% BSA in PBS at room temperature for 2 hrs. Plates were washed 3 times again with same buffer and 100 μl of samples and standards (Recombinant mouse TNF-α with 1% BSA in PBS) of different concentrations were added in triplicates and incubated for 2 hrs at RT. After washing 100 μl of goat anti mouse TNF-α conjugated with HRP were added and incubated for 2 hrs at RT. Then 100 μl of TMB substrate ([…] with H2O2) was added to all wells. After 20 min stop solution was added to all the wells, and measured the optical density at 450 nm. TNF-α concentration was calculated from standard curve by regression analysis.

Wistar rats [2] = experiment: Antidiabetic activity by starch loaded model; type: in vivo, rat; conditions: for % Increase in glucose, 30 min / Blood glucose level, 30 min: 30 min after starch; for % Increase in glucose, 30 min / Blood glucose level, 30 min / % Increase in glucose, 60 min / Blood glucose level, 60 min / % Increase in glucose, 90 min / Blood glucose level, 90 min / % Increase in glucose, 120 min / Blood glucose level, 120 min / Blood glucose level, 0 min: test compounds 100 mg/kg, Acarbose 10 mg/kg oral; for Blood glucose level, 30 min / Blood glucose level, 60 min / Blood glucose level, 90 min / Blood glucose level, 120 min / Blood glucose level, 0 min: in mg/dL (unit assumed); for % Increase in glucose, 60 min / Blood glucose level, 60 min: 60 min after starch; for % Increase in glucose, 90 min / Blood glucose level, 90 min: 90 min after starch; for % Increase in glucose, 120 min / Blood glucose level, 120 min: 120 min after starch; for Blood glucose level, 0 min: basal, prior to dosing
Source text: Experimental Animals—Wistar rats of either sex were used for the present study. Animals selected for use in the study were of uniform age and body weight. A minimum of 40 rats, from which eventually 20 rats were selected. Their body weights were in the range of 150-180 gm. The health status of the animals was ascertained by a veterinary surgeon. […] Animals were acclimatized for at least two weeks prior to start of the study. The animals were provided with pellet diet manufactured by NIN, HYDERABAD, India and drinking water adlibitum.
Compound Preparation The required quantity of the synthetic compounds were weighed and made suspension with gum acacia (2%). The test compounds were administered to all rats by per oral route. Acarbose suspension was also prepared in gum acasia suspension and given by oral route.
Antidiabetic activity by Starch model: The method of Rao et al., 2009;Tiwari et al was employed. Animals were fasted over night (12 hrs). Basal blood glucose levels were estimated for all the animals prior to dosing in test and standard groups. This was designated as “0” min reading. […] After test compounds administration animals in all three groups received Starch aqueous solution (2 gm/kg body weight). Blood glucose levels were monitored at 30, 60, 90 and 120 min after the administration of Starch in all the three groups. The percentage of increase in, blood glucose levels was calculated with respect to the control group at each time point.

[3] = 50 μg/ml, 25 μg/ml, 12.5 μg/ml with LPS 10 μg/ml, 6 hrs

SMILES | NO release in Sodium Nitroprusside method (nitric oxide) | % Inhibition (granuloma dry weight) (Wistar rats [1]) [%] | % Inhibition (granuloma wet weight) (Wistar rats [1]) [%] | Granuloma Dry Weight (Wistar rats [1]) [mg] | Granuloma Wet Weight (Wistar rats [1]) [mg] | Inhibition of TNF-a production (TNF-α; [3]) | % Increase in glucose, 30 min (Wistar rats [2]) [%] | Blood glucose level, 30 min (Wistar rats [2]) | % Increase in glucose, 60 min (Wistar rats [2]) [%] | Blood glucose level, 60 min (Wistar rats [2]) | % Increase in glucose, 90 min (Wistar rats [2]) [%] | Blood glucose level, 90 min (Wistar rats [2]) | % Increase in glucose, 120 min (Wistar rats [2]) [%] | Blood glucose level, 120 min (Wistar rats [2]) | Blood glucose level, 0 min (Wistar rats [2]; starch 2 gm/kg) | Inhibition of TNF-a production (TNF-α; 12.5 μg/ml with LPS) | Reduction in percentage increase in blood glucose levels (Wistar rats [2]; 100 mg/kg oral, starch 2 gm/kg, 30-120 min, vs diabetic control)
Nc1c2c(nc3sc4c(c13)CCC4)CCCC2 [BN-14, 2,3,6,7,8,9-Hexahydro-1H-cyclopenta[4,5]thieno[2,3-b]quinolin-10-amine] | significantly inhibited | 25.48 ± 1.89 | 20.21 ± 0.58 | 86.75 ± 2.20 | 374.42 ± 4.69 | good inhibition | 37.65 | 103.83 | 36.02 | 102.80 | 45.00 | 109.33 | 32.21 | 99.83 | 75.5 | – | –
Nc1c2c(nc3sc4c(c13)CCC4)CCCCCC2 [BN-17, 2,3,6,7,8,9,10,11-Octahydro-1H-cycloocta [b]cyclopenta[4,5]thieno[3,2-e]pyridin-12-amine] | – | – | – | – | – | – | 51.74 | 124.60 | 52.35 | 125.13 | 49.67 | 123.13 | 49.64 | 122.80 | 82.40 | – | –
CC1CCc2c(nc3sc4c(c3c2N)CCC4)C1 (stereo not drawn) [BN-15, 7-Methyl-2,3,6,7,8,9-hexahydro-1H-cyclopenta[4,5]thieno[2,3-b]quinolin-10-amine] | – | – | – | – | – | – | 42.13 | 115.50 | 51.64 | 123.03 | 39.76 | 113.75 | 42.80 | 116.05 | 81.45 | – | –
Nc1c2c(nc3sc4c(c13)CCC4)CCCCC2 [BN-16, 1,2,3,6,7,8,9,10-Octahydrocyclohepta[b]cyclopenta[4,5]thieno[3,2-e]pyridine-11-amine] | significantly inhibited | 27.70 ± 1.82 | 23.09 ± 1.59 | 84.16 ± 2.11 | 365.08 ± 6.39 | good inhibition | – | – | – | – | – | – | – | – | – | – | –
COc1ccc2c(c1)c(CC(=O)O)c(C)n2C(=O)c1ccc(Cl)cc1 [Indomethacin, reference compound] | – | 32.78 ± 1.88 | 26.93 ± 2.24 | 78.25 ± 2.19 | 338.01 ± 10.38 | – | – | – | – | – | – | – | – | – | – | – | –
Cc1sc2nc3c(c(N)c2c1C)CCCCC3 [BN-4, 2,3-dimethyl-6,7,8,9-tetrahydro-5H-cyclohepta[b]thieno[3,2-e]pyridin-4-amine] | significantly inhibited | 28.42 ± 3.09 | 22.23 ± 1.20 | 83.33 ± 3.59 | 366.08 ± 3.50 | good inhibition | – | – | – | – | – | – | – | – | – | not shown inhibition | –
Nc1c2c(nc3sc4c(c13)CCC4)CCC2 [BN-13, 1,2,3,6,7,8-hexahydrocyclopenta [b]cyclopenta[4,5] thieno[3,2-e]pyridin-9-amine] | – | – | – | – | – | – | 32.75 | 108.37 | 35.89 | 110.82 | 30.53 | 106.50 | 30.27 | 106.30 | 81.67 | – | greatest inhibitory activity
